Reference: PubChem BioAssay (NCI)
Values joined by “and” are separate entries in the source; they are usually repeats but may differ in a detail not shown here. Identical values can stand only once.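 Interpolation was linear, between the two tested concentrations surrounding the appropriate level; five concentrations were tested over 48 hours in 96-well plates. GI50: concentration for 50% inhibition of growth. Definition used: TGI = concentration required for complete inhibition of growth.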

Assays:
Assay in all cases: inhibition of tumour cell growth, NCI panel, 48 h
[1] = test system: HCT-15 colon
[2] = test system: HOP-92 NSCLC
[3] = test system: KM12 colon
[4] = test system: LOX IMVI melanoma
[5] = test system: MOLT-4 leukemia
[6] = test system: NCI-H226 lung
[7] = test system: OVCAR-3 ovarian
[8] = test system: RXF 393 renal
[9] = test system: SNB-75 CNS
[10] = test system: SR leukemia

Structure (SMILES)	GI50 [1] [µM]	TGI [1] [µM]	GI50 [2] [µM]	TGI [2]	GI50 [3] [µM]	TGI [3]	GI50 [4] [µM]	TGI [4]	GI50 [5] [µM]	TGI [5]	GI50 [6] [µM]	TGI [6]	GI50 [7] [µM]	TGI [7]	GI50 [8] [µM]	TGI [8]	GI50 [9] [µM]	TGI [9]	GI50 [10] [µM]	TGI [10] [µM]
CNCCCn1cc(C2=C(c3cn(C)c4ccccc34)C(=O)NC2=O)c2ccccc21	6.04	22.7	2.63	10.1 µM	3.89	8.39 µM	3.93	8.28 µM	5	19.1 µM	6.2	22.8 µM	5.14	13.8 µM	3.48	6.95 µM	0.281	2.95 µM	3.94	16.2
Clc1ccc2c(NCCCNc3nccc(Nc4ccc(Br)cc4)n3)ccnc2c1	1.28	2.7	1.32	3.23 µM	1.82	3.36 µM					2.74	7.37 µM	1.75	3.23 µM			1.3	2.57 µM		
O=C(Nc1ccc(OS(=O)(=O)c2ccccc2)cc1)C12CC3CC(CC(C3)C1)C2	0.997	> 100	1.87	> 100 µM	2.1	> 100 µM	4.38	> 100 µM	5.05	> 100 µM	27.7	> 100 µM			5.12	> 100 µM	7.16	> 100 µM	3.6	> 100
CC1=CC(/C=C(\C)CCCc2ccoc2)C2(OC(=O)C(C)=C2O)[C@H]2C1CC[C@@H]2C (some centres not stated)		39.8		41 µM		> 100 µM		59.3 µM		41.3 µM		54.6 µM		51 µM		60.5 µM		> 100 µM		
C[As](C)SC1OC(CO)C(O)C1O (configuration not stated)	0.238	1.12	0.0884	0.955 µM	2.4	13.6 µM	0.445	1.75 µM	0.174	0.957 µM	1.18	5.21 µM	0.0623	0.203 µM	0.176	2.37 µM	0.912	2.62 µM	0.213	3.13
CC1OC2CC(=O)OC2C2=C1C(=O)c1c(O)cccc1C2=O (configuration not stated)	0.0314	0.15	0.151	0.315 µM	0.176	0.392 µM	0.0342	0.129 µM			0.454	0.929 µM	0.0297	0.0851 µM	0.0195	0.0499 µM	0.13	0.317 µM		
CCC[CH2][Sn]([CH2]CCC)([CH2]CCC)[O]C(=O)CC	0.156	0.409	0.137	0.429 µM	0.135	0.27 µM			0.247	1 µM			0.133	0.261 µM	0.14	0.285 µM	0.144	0.349 µM		
CCCCN(CCCC)CC(C(=O)Nc1ccc([N+](=O)[O-])cc1[N+](=O)[O-])/C(C)=N\NC(=S)NN (configuration not stated)				> 100 µM		> 100 µM		> 100 µM		> 100 µM		> 100 µM		> 100 µM		> 100 µM		> 100 µM		
O=C(OCc1ccc2cccc(O)c2n1)N1CCN(C(=O)c2cc3cc(F)ccc3[nH]2)CC1	0.452	1.8	0.383	1.94 µM	1.61	3.46 µM	1.36	2.75 µM	0.334	1.37 µM			0.46	1.77 µM	0.981	2.17 µM	1.02	2.24 µM	0.272	1.6
Cc1nnc(S(=O)(=O)c2ccc(N=Nc3c(N)nc(N)nc3N)cc2)s1		> 100		> 100 µM		> 100 µM		> 100 µM		> 100 µM		> 100 µM		> 100 µM		> 100 µM				> 100
CNC(=S)NC1CCCCC1NC(=S)NC (configuration not stated)		> 100		> 100 µM		> 100 µM		> 100 µM		> 100 µM		> 100 µM		> 100 µM				> 100 µM		> 100
CCOC(=O)Oc1c(OC)cc(C(=O)NC2CCc3cc(OC)c(OC)c(OC)c3-c3ccc(SC)c(=O)cc32)cc1OC (configuration not stated)	0.132	13.6		0.871 µM	< 0.007				< 0.007	> 70 µM	0.00709	0.0974 µM and 0.0242 µM	< 0.007				< 0.007	< 0.007 µM		< 0.007
COc1ccc(OC)c(NC(=O)C(=O)NNC(=O)c2sc(NNC(C)=O)nc2C)c1		> 100		39.2 µM		> 100 µM		83.3 µM		47.1 µM		> 100 µM		66.3 µM						> 100
Cc1c2cccnc2c(C)c2c1c1cc(CO)ccc1n2C	2	15.4	2.1	7.31 µM	2.33	17 µM	1.5	4.82 µM	1.64	22.5 µM	0.264	1.33 µM	2.38		1.93	5.5 µM				
CCOC(=O)/C=C/C(C(=O)/C=C/c1ccc(OC2CCCCO2)c(OC)c1)=C(O)\C=C\c1ccc(OC2CCCCO2)c(OC)c1 (configuration not stated)	3.59	12.6	20.2	58.2 µM	4.75	19 µM	1.63	3.32 µM			12.9	34.7 µM	2.58	8.47 µM	2.21	5.68 µM				
O=C1CN=C(C[N+](=O)[O-])c2ccccc21		> 100		> 100 µM		> 100 µM				> 100 µM		> 100 µM		> 100 µM				> 100 µM		> 100
CNCCNc1c2c(c(NCCNC)c3c(CN(C)C)c[nH]c13)C(=O)c1ccccc1C2=O	5.7	20.5	1.02	5.33 µM	2.8	9.5 µM	2.35	6.04 µM	0.434		6.69	24.2 µM	1.03	6.8 µM	2.5	11 µM	7.14	22 µM		
COC(=O)c1cc2c(cc1O)[C@@H](NC(C)=O)CCc1cc(OC)c(OC)c(OC)c1-2	0.0226			8.75 µM	< 0.01			> 100 µM	0.0472	81.8 µM	0.0309								< 0.01	> 100
Oc1[nH]c2ccccc2c1N=Nc1ccccc1Cl		> 100				> 100 µM		> 100 µM		> 100 µM		> 100 µM		> 93.8 µM		> 85.2 µM		> 79.6 µM		34.3

Structure (SMILES)	GI50 [1] [µM]	TGI [1] [µM]	GI50 [2] [µM]	TGI [2]	GI50 [3] [µM]	TGI [3]	GI50 [4] [µM]	TGI [4]	GI50 [5] [µM]	TGI [5]	GI50 [6] [µM]	TGI [6]	GI50 [7] [µM]	TGI [7]	GI50 [8] [µM]	TGI [8]	GI50 [9] [µM]	TGI [9]	GI50 [10] [µM]	TGI [10] [µM]
NC(=NCCCOc1ccc(Cl)cc1)Nc1ccc(C(F)(F)F)cc1	1.72	4.15	0.849	4.63 µM			1.46	2.77 µM	1.41	5 µM	3.87	19.2 µM	2.26	6.14 µM	1.42	5.52 µM	0.914	7.67 µM	1.77	5.95
CC(C)(C)OC(=O)NCC(=O)OCc1ccccc1		> 100		> 100 µM		> 100 µM		> 100 µM		> 100 µM				> 100 µM				> 100 µM		
O=C1c2ccccc2C2(Br)C(=O)c3ccccc3C12 (configuration not stated)		> 100		> 100 µM		> 100 µM		26.4 µM		> 100 µM				> 100 µM		> 100 µM		> 100 µM		
Ic1ccc(Nc2nc3nonc3nc2Nc2ccc(I)cc2)cc1	0.144	> 100	0.0408	0.458 µM	0.293	> 100 µM			0.256	1.06 µM			0.214	> 100 µM			0.227	> 100 µM		
C=C(F)C(=O)N1CCN(c2nc(OC[C@@H]3CCCN3C)nc3c2CCN(c2cccc4cccc(Cl)c24)C3)C[C@@H]1CC#N	0.56	2.06	0.437	1.85 µM	1.2	2.56 µM	1.13	2.47 µM	0.573	2.71 µM			1.15	3.28 µM	1.29	2.66 µM	1.17	2.67 µM	0.657	2.6
O=S(O)CCCCSSCC(O)C(O)CSSCCCCS(=O)O (configuration not stated)		> 100		79.7 µM and 96.5 µM		36.4 µM and > 100 µM		38.1 µM and 72.7 µM		6.69 µM and 9.58 µM				23.8 µM and 25.6 µM		38 µM and 89.8 µM		> 100 µM and 88.7 µM		
CC(C)=C[C@@H]1C[C@H](C)[C@H]2CC[C@H](C)C3=C2[C@](O)(OC3=O)[C@]1(C)O	> 100	> 100			> 100	> 100 µM	> 100	> 100 µM	> 100	> 100 µM	> 100	> 100 µM	> 100	> 100 µM	> 100	> 100 µM	> 100	> 100 µM	> 100	> 100
Cc1ccc(SC(C)/C=C/NNC2=NC(c3ccccc3)C(c3ccccc3)=NN2)cc1 (configuration not stated)		> 100		66.1 µM		> 100 µM		> 100 µM		> 100 µM		98.1 µM		> 100 µM				> 100 µM		65.1
CCOP(=O)(Cc1ccc(CP(=O)(OCC)OCC)n1C)OCC		> 100		> 100 µM		> 100 µM		> 100 µM		> 100 µM				> 100 µM		> 100 µM		> 100 µM		
COC(=O)C1=C(C)N(NC(=O)c2ccccc2)C(C)(O)C12CCOC2=O (configuration not stated)		> 100				> 100 µM		> 100 µM		> 100 µM		> 100 µM		> 100 µM						
CS(=O)(=O)N/N=C/CN1C(=O)c2ccccc2C1=O		> 100				> 100 µM				> 100 µM		> 100 µM		> 100 µM				> 100 µM		> 100
O=[N+]([O-])c1nccn1CC(O)c1ccc(F)cc1 (configuration not stated)		> 100		> 100 µM		> 100 µM		> 100 µM		> 100 µM		> 100 µM		> 100 µM		> 100 µM		> 100 µM		
COc1ccc(NC(=O)CCc2cc(-c3ccc(O)c(OC)c3)nc(NC#N)n2)cc1		> 100		> 100 µM		> 100 µM		> 100 µM		> 100 µM		> 100 µM		> 100 µM		> 100 µM				> 100
CCCCCCCCCC/C=C/CC(=O)SCCNC(=O)CCNC(=O)[C@@H](O)C(C)(C)COP(=O)(O)OP(=O)(O)OCC1OC(n2cnc3c(N)ncnc32)C(O)C1OP(=O)(O)O (some centres not stated)		> 10		> 10 µM		> 10 µM		> 10 µM		> 10 µM		> 10 µM		> 10 µM		> 10 µM		> 10 µM		
O=C(O)CNc1cc(-c2ccccc2)nc(NCC(=O)O)n1		> 100		> 100 µM		> 100 µM		> 100 µM		> 100 µM		> 100 µM		> 100 µM				> 100 µM		> 100
O=[n+]1c2c(n([O-])c3ccccc31)CCCCCCCCCC2		> 100		> 100 µM		> 100 µM		> 100 µM		> 100 µM		61.8 µM		> 100 µM				> 100 µM		> 100
Cc1ccc(S(=O)(=O)NCC2CCCCC2=O)cc1 (configuration not stated)		> 100		97.2 µM		> 100 µM		> 100 µM		> 100 µM		> 100 µM		> 100 µM		> 100 µM		93.1 µM		
O=C1OC(c2ccccc2)=N/C1=C/C=C/c1ccco1		> 100		> 100 µM		> 100 µM				> 100 µM				> 100 µM		> 100 µM				> 100
Cc1ccccc1N1C(=O)/C(=C/c2ccc(N(CCC#N)CCC#N)cc2)N=C1c1cc([N+](=O)[O-])ccc1Cl		> 100				> 100 µM				> 100 µM		> 100 µM		> 100 µM				> 100 µM		> 100
